Measured values from article PMC5011342, “A high throughput drug screening assay to identify compounds that promote oligodendrocyte differentiation using acutely dissociated and purified oligodendrocyte precursor cells” (BMC Research Notes, 2016).
Structures can show the parent of a compound that is named as a salt. Where two headings read alike, the source gives them in different places.

Tests used:
expanded OPCs = test: cells; conditions: for viability at 0.1 µM / viability at 1 µM / viability at 10 µM: Rattus norvegicus, 72 h
Method in brief: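 Expanded OPCs seeded at 10,000 cells/well in differentiation media, then exposed to NCC library compounds at 10, 1 and 0.1 µM (quadruplicate, 0.1% DMSO) for three days. Viability read as alamarBlue fluorescence (560/590 nm) after 4 h at 37 °C; tunicamycin 5 ng/ml served as toxicity control.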

[1] = system: acutely dissociated and purified rat OPCs; test: Acute OL differentiation assay (MBP expression/cell, immunofluorescent image quantification); assay type: cell-based; conditions: sheet "All OLga data"; for activation at 2 µM / activation at 10 µM / activation at 0.4 µM / activation at 0.08 µM: Rattus norvegicus; for activation at 0.08 µM: test compound at 0.08 uM, read-out: 0.08 uM (% Quet)
Method in brief: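 Oligodendrocyte precursor cells were enriched from P6-P7 Sprague–Dawley rat brains by immunopanning (RAN-2 and GalC depletion, O4 selection), plated at 5000 cells/well in serum-free, mitogen-free differentiation media on PDL/laminin 96-well view plates, centrifuged at 200×g, and pre-incubated 1–2 h before test compounds were added in quadruplicate. On DIV4, cells were fixed, stained for MBP and DAPI, imaged automatically, and MBP expression per cell was quantified.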

[2] = alamarBlue viability of expanded OPCs, compound at 0.1 µM, relative to DMSO control
[3] = alamarBlue viability of expanded OPCs, compound at 1 µM, relative to DMSO control
[4] = alamarBlue viability of expanded OPCs, compound at 10 µM, relative to DMSO control
[5] = test compound at 2 uM, MBP expression relative to quetiapine, NCC library screen, read-out: 2 uM (% Quet)
[6] = test compound at 10 uM, MBP expression relative to quetiapine, NCC library screen, read-out: 10 uM (% Quet)
[7] = test compound at 2 uM, NCC library screen, relative to quetiapine, read-out: 2 uM (% Quet)
[8] = read-out: 0.1 µM (% DMSO), alamarBlue viability of expanded OPCs, compound at 0.1 µM, sheet All Tox data
[9] = read-out: 1 µM (% DMSO), alamarBlue viability of expanded OPCs, compound at 1 µM, sheet All Tox data
[10] = read-out: 10 µM (% DMSO), alamarBlue viability of expanded OPCs, compound at 10 µM, sheet All Tox data
[11] = 0.4 uM test compound, relative to quetiapine, read-out: OL differentiation, 0.4 uM (% Quet)
[12] = 2 uM test compound, relative to quetiapine, read-out: OL differentiation, 2 uM (% Quet)
[13] = test compound at 10 uM, NCC library screen, relative to quetiapine, read-out: 10 uM (% Quet)
[14] = read-out: 0.1 µM (% DMSO), alamarBlue viability, NCC library compound at 0.1 µM, sheet "All Tox data"
[15] = read-out: 1 µM (% DMSO), alamarBlue viability, NCC library compound at 1 µM, sheet "All Tox data"
[16] = read-out: 10 µM (% DMSO), alamarBlue viability, NCC library compound at 10 µM, sheet "All Tox data"
[17] = 10 uM test compound, relative to quetiapine, read-out: OL differentiation, 10 uM (% Quet)

Row | Structure (SMILES) | 0.1 µM (% DMSO) (expanded OPCs; [2]) | 1 µM (% DMSO) (expanded OPCs; [3]) | 10 µM (% DMSO) (expanded OPCs; [4]) | viability at 0.1 µM (expanded OPCs; [8]) | viability at 1 µM (expanded OPCs; [9]) | viability at 10 µM (expanded OPCs; [10]) | activation at 2 µM [1, 12] | activation at 10 µM [1, 17] | also measured
1 | C[C@]12CC[C@@H]3c4ccc(OS(=O)(=O)O)cc4CC[C@H]3[C@@H]1CCC2=O [Estrone sulfate] | – | – | – | – | – | – | – | – | 0.1 µM (% DMSO) (expanded OPCs; alamarBlue viability, NCC library compound at 0.1 µM, sheet "All Tox data"): 94.4 % DMSO; 1 µM (% DMSO) (expanded OPCs; alamarBlue viability, NCC library compound at 1 µM, sheet "All Tox data"): 83.6 % DMSO; 10 µM (% DMSO) (expanded OPCs; alamarBlue viability, NCC library compound at 10 µM, sheet "All Tox data"): 92.4 % DMSO; 2 uM (% Quet) ([1]; test compound at 2 uM, NCC library screen, relative to quetiapine): 12.5 % Quet; 10 uM (% Quet) ([1]; test compound at 10 uM, NCC library screen, relative to quetiapine): 10.2 % Quet
2 | CN1CCN(C(=O)O[C@H]2c3nccnc3C(=O)N2c2ccc(Cl)cn2)CC1 [Eszopiclone] | 103.0 % DMSO | 99.5 % DMSO | 106.9 % DMSO | – | – | – | – | – | activation at 2 µM [1, 5]: -2.9%; activation at 10 µM [1, 6]: -10.2%
3 | C=C(CC)C(=O)c1ccc(OCC(=O)O)c(Cl)c1Cl [Ethacrynic Acid] | 90.2 % DMSO | 80.6 % DMSO | 11.2 % DMSO | – | – | – | – | – | activation at 0.4 µM ([1]; test compound at 0.4 uM, NCC library screen, relative to quetiapine, read-out: 0.4 uM (% Quet)): -23.7%; activation at 2 µM [1, 7]: -192%
4 | CC[C@@H](CO)NCCN[C@@H](CC)CO [Ethambutol] | 106.3 % DMSO | 100.0 % DMSO | 85.9 % DMSO | – | – | – | – | – | activation at 2 µM [1, 5]: 2.2%; activation at 10 µM [1, 6]: -11.9%
5 | C#C[C@]1(O)CC[C@H]2[C@@H]3CCc4cc(O)ccc4[C@H]3CC[C@@]21C [Ethinyl Estradiol] | – | – | – | 81% | 88% | 43.9% | -2.6% | – | activation at 0.4 µM [1, 11]: 7.3%
6 | CCc1cc(C(N)=S)ccn1 [Ethionamide] | 89.6 % DMSO | 86.5 % DMSO | 79.6 % DMSO | – | – | – | – | – | activation at 2 µM [1, 7]: -7.9%; activation at 10 µM [1, 13]: 7.6%
7 | CC[C@]1(O)CC[C@H]2[C@@H]3CCC4=CCCC[C@@H]4[C@H]3CC[C@@]21C [Ethylestrenol] | – | – | – | – | – | – | – | – | viability at 0.1 µM (expanded OPCs; [14]): 98%; viability at 1 µM (expanded OPCs; [15]): 96.1%; viability at 10 µM (expanded OPCs; [16]): 54.2%; activation at 2 µM [1, 7]: -2.2%; activation at 10 µM [1, 13]: -45.5%
8 | CCC(C(N)=O)N1CCCC1=O (stereo not drawn) [Etiracetam] | – | – | – | 86.3% | 90.6% | 91.7% | -3.1% | -6.3% | –
9 | CCc1cccc2c3c([nH]c12)C(CC)(CC(=O)O)OCC3 (stereo not drawn) [Etodolac] | 98.7 % DMSO | 88.3 % DMSO | 92.3 % DMSO | – | – | – | – | – | activation at 2 µM [1, 5]: 20.9%; activation at 10 µM [1, 6]: 7.5%
10 | CCOC(=O)c1cncn1[C@H](C)c1ccccc1 [Etomidate] | 89.9 % DMSO | 87.4 % DMSO | 88.3 % DMSO | – | – | – | – | – | viability at 0.1 µM (expanded OPCs; [14]): 101%; viability at 1 µM (expanded OPCs; [15]): 87.4%; viability at 10 µM (expanded OPCs; [16]): 83%; activation at 2 µM [1, 5]: 10.1%; activation at 2 µM [1, 7]: -2.5%; activation at 10 µM [1, 6]: -7.1%; activation at 10 µM [1, 13]: -8.3%
11 | CCOC(=O)[C@@]1(CCCCCCOc2ccc(Cl)cc2)CO1 [Etomoxir] | – | – | – | 85.7% | 92.3% | 86.2% | 10.1% | 5.4% | –
12 | COc1cc([C@@H]2c3cc4c(cc3[C@@H](O[C@@H]3O[C@@H]5CO[C@@H](C)O[C@H]5[C@H](O)[C@H]3O)[C@H]3COC(=O)[C@H]23)OCO4)cc(OC)c1O [Etoposide] | – | – | – | – | – | – | – | – | viability at 0.1 µM (expanded OPCs; [14]): 40.9%; viability at 1 µM (expanded OPCs; [15]): 14%; viability at 10 µM (expanded OPCs; [16]): 8.9%; activation at 0.08 µM ([1]; NCC library screen, relative to quetiapine): -42.3%
13 | C=C1C[C@@H]2[C@H](CC[C@]3(C)C(=O)CC[C@@H]23)[C@@]2(C)C=CC(=O)C=C12 [Exemestane] | – | – | – | – | – | – | -24.2% | -57.2% | viability at 0.1 µM (expanded OPCs; [14]): 92.7%; viability at 1 µM (expanded OPCs; [15]): 95.1%; viability at 10 µM (expanded OPCs; [16]): 102%
14 | O=C1[C@H](CC[C@H](O)c2ccc(F)cc2)[C@@H](c2ccc(O)cc2)N1c1ccc(F)cc1 [Ezetimibe] | – | – | – | 93.7% | 87.4% | 48.7% | -114% | – | activation at 0.4 µM [1, 11]: -41.3%
15 | CC(=O)OCC(CCn1cnc2cnc(N)nc21)COC(C)=O [Famciclovir] | – | – | – | 97.6% | 90.6% | 106% | -6.9% | -8.8% | –
16 | NC(N)=Nc1nc(CSCCC(N)=NS(N)(=O)=O)cs1 [Famotidine] | – | – | – | 92.3% | 96.4% | 102% | -2.2% | 17.8% | –
17 | NC(=O)OCC(COC(N)=O)c1ccccc1 [Felbamate] | – | – | – | – | – | – | -1.8% | -7.9% | viability at 0.1 µM (expanded OPCs; [14]): 92.3%; viability at 1 µM (expanded OPCs; [15]): 95.5%; viability at 10 µM (expanded OPCs; [16]): 91.9%
18 | CCOC(=O)C1=C(C)NC(C)=C(C(=O)OC)C1c1cccc(Cl)c1Cl (stereo not drawn) [Felodipine] | 85.5 % DMSO | 62.8 % DMSO | 18.3 % DMSO | – | – | – | – | – | activation at 0.08 µM ([1]; MBP expression relative to quetiapine, NCC library screen): -8.1%; activation at 0.4 µM ([1]; test compound at 0.4 uM, MBP expression relative to quetiapine, NCC library screen, read-out: 0.4 uM (% Quet)): 0.8%
19 | CC(C)OC(=O)C(C)(C)Oc1ccc(C(=O)c2ccc(Cl)cc2)cc1 [Fenofibrate] | 85.2 % DMSO | 87.6 % DMSO | 103.9 % DMSO | – | – | – | – | – | activation at 2 µM [1, 7]: 31.5%; activation at 10 µM [1, 13]: -62.3%
20 | Oc1ccc(C2CNCCc3c2cc(O)c(O)c3Cl)cc1 (stereo not drawn) [Fenoldopam] | – | – | – | 106% | 97.4% | 75.9% | -32.3% | -79.8% | –
21 | C[N+]1(CCC(C(N)=O)(c2ccccc2)c2ccccc2)CCCCC1 [Fenpiverinium] | – | – | – | 93.3% | 96.9% | 101% | -23.8% | -19.5% | –
22 | CC(C)(C)NC(=O)[C@H]1CC[C@H]2[C@@H]3CC[C@H]4NC(=O)C=C[C@]4(C)[C@H]3CC[C@]12C [Finasteride] | – | – | – | 83.3% | 85.8% | 85.3% | -14.4% | -17.4% | –
